Measurements reported in US5795899A, “Soluble salts of 4-amino-2-(4,4-dimethylimidazolidin-2-on-1-yl) pyrimidine-5-carboxylic acid N-methyl-N-(3-trifluoromethylphenyl)-amide, a process for the preparation thereof, the use thereof as pharmaceuticals and starting materials” (Hoechst Aktiengesellschaft, priority 1992, dated 1998).
Converted amounts (≈) assume the structure as drawn. Read-outs that look alike come from different tables or passages of the source.

Columns and labels:
serum lipoproteins = assay: Effect on serum lipoproteins of normolipemic male rats in a subchronic test; format: in vivo, male Wistar rats, HOE: WISKf (SPF 71) strain; conditions: 100 mg/kg/day, oral, 7 days
Experimental: 4.1 Effect on serum lipoproteins of normolipemic male rats in a subchronic test
Groups of in each case 10 male rats of the HOE: WISKf (SPF 71) strain with an initial weight above 180 g received once a day (in the morning) the test product or the comparison product in 1% aqueous ®Tylose MH 300 solution by stomach tube (0.5 ml/100 g of body weight); the control group in each case received only the vehicle. The last (7th) administration took place 24 hours before removal of blood and sacrifice. There was free access to food and water during the test. The food was withdrawn 24 hours before the removal of blood.
The serum from all 10 rats in a group was pooled for the analysis of the serum lipoproteins. The serum lipoproteins were separated with a preparative ultracentrifuge (KONTRON TGA 65, Rotor BECKMAN 50.4 Ti).
The following conditions specified by Koga, S., Horwitz, D. L., and Scanu, A. M., Journal of Lipid Research 10, 577 (1969) and Havel, R. J., Eder, H. A., and Bragdon, H. H., J. Clin. Invest. 34, 1345 (1955) were used to separate VLDL, LDL and HDL:
Test kits from BOEHRINGER/Mannheim were used for the enzymatic determination of cholesterol and triglycerides in the separated lipoprotein fractions (compare Siedel, J., Schlumberger, H., Klose, S., Ziegenhorn, J. and Wahlefeld, A. W., J. Clin. Chem. Clin. Biochem. 19, 838 (1981) and Wahlefeld, A. W., in: H. O. Bergmeier: Methoden der enzymatischen Analyse (Methods of Enzymatic Analysis), 2nd edition, Volume II, Verlag Chemie 1974, page 1878). The proteins were determined by the method of Lowry (Lowry, O. H., Roseborough, N. J., Farr, A. L. and R. J. Randell, J. Biol. Chem. 193, 265 (1951)).
Clofibrate was used as comparison product.

hypercholesterolemia = assay: Effect on experimental hypercholesterolemia in male rats; format: in vivo, male Wistar rats, HOE: WISKf (SPF 71) strain; conditions: 100 mg/kg/day, oral, 7 days
Experimental: Groups of in each case 10 male rats of the HOE: WISKf (SPF 71) strain with a weight of about 200 g received each day in the morning a cocktail which contained the substances required to generate a combined dietetic/hormonal hypercholesterolemia, and in each case the product to be tested for the inhibition of hypercholesterolemia, in appropriate dosage. The cocktail was composed of a mixture of 100 g of cholesterol, 30 g of propylthiouracil and 100 g of cholic acid in 1 l of peanut oil. 1 ml of this/100 g of body weight was administered by gavage. The products to be tested were suspended in this cocktail in a concentration such that it contained the daily dose indicated in Table 4 on administration of the amount mentioned above. The other procedure for the treatment and the analysis of the individual parameters were carried out as indicated under 4.1.
Clofibrate was used as comparison product. The results are compiled in Table 4, wherein a) indicates the absolute values and b) indicates the percentage changes.

[1] = system: carbohydrate-induced hypertriglyceridemia; assay: Inhibition of carbohydrate-induced hypertriglyceridemia; format: in vivo, male Sprague-Dawley rats
Experimental: Groups of in each case 10 male Sprague-Dawley rats (supplied by the breeder Mollegard with a weight of 250-280 g) received on each of 4 consecutive days one administration of the compound dissolved in PEG 400 by gavage. In addition, after the 3rd administration and 8 and 24 hours later they received 2.5 g of fructose/kg, likewise by gavage. Moreover, after the 3rd administration of product, 50% strength fructose solution was offered to them as drinking water ad libitum, and the food was withdrawn. Retroorbital removal of blood, from which the serum was obtained for the triglyceride determination and VLDL preparation in the ultracentrifuge (flotation at d=1.006), took place 3 hours after the last product/fructose administration. The food received by the animals from 1 week before the 1st administration and up to the 3rd administration was a diet with 40% casein in the feed meal.
The animals develop, as a result of this treatment, a hypertriglyceridemia which approximately corresponds to Fredrickson phenotype IV in humans. The serum triglycerides of the normal animals increased from 0.54 to 1.1 mmol/l, and the VLDL triglycerides from 0.67 to 1.81.

physchem = conditions: water
[2] = system: mouse leukemia cells, L 1210; assay: MTT assay, inhibition of cell proliferation, L1210; format: cell-based; conditions: 72 hours incubation
Experimental: (§1) The reduced inhibitory effect on cell proliferation was tested on exponentially growing animal (mouse leukemia cells, L 1210) and human (bronchial carcinoma cells, A 549; colon carcinoma cells, HT 29) tumor cells. This entailed the tumor cells being incubated in RPMI standard medium with various concentrations of the test substances for 72 hours. Cell incubations only in fresh medium served as control. Incubations were set up in quadruplet. […] After incubation for a further 7 to 24 hours, the cell supernatant was carefully removed and the formazan dye in the cells was solubilized by adding DMSO and measured quantitatively by photometry at 492 nm. The ratio of the extinction of the substance incubations to the control incubation was quantified. The coefficient of variation in each incubation series was less than 15%. The following Table 6 indicates the IC50 values (IC50 [μg/ml] is the concentration of the test substance per ml which is necessary for 50% inhibition) from these investigations.

[3] = system: colon carcinoma cells, HT 29; assay: MTT assay, inhibition of cell proliferation, HT 29; format: cell-based; conditions: Homo sapiens, 72 hours incubation
Experimental: as §1

[4] = system: bronchial carcinoma cells, A 549; assay: MTT assay, inhibition of cell proliferation, A 549; format: cell-based; conditions: Homo sapiens, A549; 72 hours incubation
Experimental: as §1

[5] = Table 1, Temp. [°C]: No. 1 25.0, 2 23.0, 3 26.2, 4 25.1, 5 25.2, 6 24.1, 7 24.5, 8 24.2, 9 24.2, 10 25.7, 11 25.8
[6] = Table 2, Temp. [°C]: hydrochloride 25.0, nitrate 23.5, p-toluenesulfonate 23.2, hydrogen (R,R)-tartrate 24.6, free base 24.8

SMILES: CCOC(=O)C(C)(C)Oc1ccc(Cl)cc1 [Clofibrate, reference compound]
- % change compared with control, protein LDL (serum lipoproteins): -32%
- % change compared with control, total cholesterol LDL (serum lipoproteins): -31%
- % change compared with control, total cholesterol VLDL (serum lipoproteins): -30%
- % change compared with control, triglycerides VLDL (serum lipoproteins): -34%
- % change compared with control, protein "HDL" d > 1.04 (hypercholesterolemia): -27%
- % change compared with control, protein LDL (hypercholesterolemia): +16%
- % change compared with control, protein VLDL (hypercholesterolemia): -63%
- % change compared with control, total cholesterol "HDL" d > 1.04 (hypercholesterolemia): +10%
- % change compared with control, total cholesterol LDL (hypercholesterolemia): +16%
- % change compared with control, total cholesterol VLDL (hypercholesterolemia): +27%
- % change compared with control, triglycerides VLDL (hypercholesterolemia): +21%
- Lipoprotein fraction protein "HDL" (hypercholesterolemia): 3920
- Lipoprotein fraction protein LDL (hypercholesterolemia): 1435
- Lipoprotein fraction protein VLDL (hypercholesterolemia): 809
- Lipoprotein fraction total cholesterol "HDL" (hypercholesterolemia): 648
- Lipoprotein fraction total cholesterol LDL (hypercholesterolemia): 5434
- Lipoprotein fraction total cholesterol VLDL (hypercholesterolemia): 5924
- Lipoprotein fraction triglycerides VLDL (hypercholesterolemia): 1770
- Serum % change compared with control at the end of treatment, total cholesterol (hypercholesterolemia): +20%
- Serum % change compared with control at the end of treatment, triglycerides (hypercholesterolemia): +26%
- Triglycerides, pool (hypercholesterolemia): 3.68 mmol/L
- Total cholesterol (x) (hypercholesterolemia; mean x): 880 mg/dL
- Triglycerides in serum, % change from fructose control ([1]; 100 mg/kg/day, oral, 4 days): -25%
- Triglycerides in the VDVL fraction, % change from fructose control ([1]; 100 mg/kg/day, oral, 4 days): -37%
- Triglycerides in the VDVL fraction, pool n = 10 ([1]; 100 mg/kg/day, oral, 4 days): 1.15 mmol/L
- Triglycerides in serum (x) ([1]; 100 mg/kg/day, oral, 4 days, mean x): 0.83 mmol/L
- Inhibitory effect on increase in VLDL triglycerides (in words) ([1]; dose 100 times higher than 1 mg/kg/day): only a slight inhibitory effect

SMILES: CC1(C)CN(c2ncc(C(=O)Nc3cccc(C(F)(F)F)c3)c(N)n2)C(=O)N1 [Compound 2]
- Solubility in water: Concentration in % by weight [5]: 0.08 % by weight
- Solubility in water: Molarity [5]: 0.90 × 10^-3

SMILES: CC1(C)CN(c2ncc(C(=O)Nc3ccc(F)c(C(F)(F)F)c3)c(N)n2)C(=O)N1 [Compound 3]
- 1 part by mass dissolves in . . . parts of H2 O [5]: 703 parts of H2 O

SMILES: CC1(C)CN(c2ncc(C(=O)Nc3cc(C(F)(F)F)ccc3Cl)c(N)n2)C(=O)N1 [Compound 4]
- 1 part by mass dissolves in . . . parts of H2 O [5]: 217 parts of H2 O

SMILES: CC1(C)CN(c2ncc(C(=O)Nc3ccc(Cl)c(C(F)(F)F)c3)c(N)n2)C(=O)N1 [Compound 5]
- 1 part by mass dissolves in . . . parts of H2 O [5]: 1055 parts of H2 O

SMILES: COc1ccc(C(F)(F)F)cc1NC(=O)c1cnc(N2CC(C)(C)NC2=O)nc1N [Compound 6]
- Solubility in water (in words): sparingly soluble in water
- 1 part by mass dissolves in . . . parts of H2 O [5]: 75 parts of H2 O

SMILES: COc1ccc(NC(=O)c2cnc(N3CC(C)(C)NC3=O)nc2N)cc1C(F)(F)F [Compound 7]
- 1 part by mass dissolves in . . . parts of H2 O [5]: 554 parts of H2 O

SMILES: CCCC1(C)CN(c2ncc(C(=O)Nc3cc(C(F)(F)F)ccc3Cl)c(N)n2)C(=O)N1 (stereo not drawn) [Compound 8]
- 1 part by mass dissolves in . . . parts of H2 O [5]: 781 parts of H2 O

SMILES: CN(C(=O)c1cnc(N2CC(C)(C)NC2=O)nc1N)c1cccc(C(F)(F)F)c1.O=C(O)C(O)C(O)C(=O)O [Hydrogen (R,R)-tartrate, 4-amino-2-(4,4-dimethyl-2-oxo-1-imidazolidinyl)pyrimidine-5-carboxylic acid N-methyl-N-(3-trifluoromethylphenyl)amide hydrogen (R,R)-tartrate]
- 1 part by mass dissolves in . . . parts of H2 O [6]: < 9.90 parts of H2 O
- solubility (physchem): > 91 mg/mL

SMILES: CN(C(=O)c1cnc(N2CC(C)(C)NC2=O)nc1N)c1cccc(C(F)(F)F)c1.O=[N+]([O-])O [Nitrate, 4-amino-2-(4,4-dimethyl-2-oxo-1-imidazolidinyl)pyrimidine-5-carboxylic acid N-methyl-N-(3-trifluoromethylphenyl)amide nitrate]
- 1 part by mass dissolves in . . . parts of H2 O [6]: 8.13 parts of H2 O
- solubility (physchem): 110 mg/mL

SMILES: CC1(C)CN(c2ncc(C(=O)Nc3cccc(C(F)(F)F)c3)c(N)n2)C(=O)N1 [No. 1, 4-amino-2-(4,4-dimethylimidazolidin-2-on-1-yl)pyrimidine-5-carboxylic acid N-(3-trifluoromethylphenyl)amide, reference compound]
- IC50 [2]: 0.7 µg/mL (≈ 1.78 µM)
- IC50 [3]: 4.3 µg/mL (≈ 10.9 µM)
- IC50 [4]: 3.4 µg/mL (≈ 8.62 µM)

SMILES: CCCC1(C)CN(c2ncc(C(=O)Nc3ccc(Cl)c(C(F)(F)F)c3)c(N)n2)C(=O)N1 (stereo not drawn) [No. 9, reference compound]
- 1 part by mass dissolves in . . . parts of H2 O [5]: 725 parts of H2 O
- Solubility in water: Concentration in % by weight [5]: 0.13 % by weight

SMILES: CCCC1(C)CN(c2ncc(C(=O)Nc3cccc(C(F)(F)F)c3)c(N)n2)C(=O)N1 (stereo not drawn) [No. 10, reference compound]
- 1 part by mass dissolves in . . . parts of H2 O [5]: 255 parts of H2 O
- Solubility in water: Molarity [5]: 8.54 × 10^-3

SMILES: CC1NC(=O)N(c2ncc(C(=O)Nc3cccc(C(F)(F)F)c3)c(N)n2)C1C (stereo not drawn) [No. 11, reference compound]
- 1 part by mass dissolves in . . . parts of H2 O [5]: 277 parts of H2 O

SMILES: CC1(C)CN(c2ncc(C(=O)Nc3cccc(C(F)(F)F)c3)c(N)n2)C(=O)N1 [imanixil, 4-amino-2-(4,4-dimethylimidazolidin-2-on-1-yl)pyrimidine-5-carboxylic acid N-(3-trifluoromethylphenyl)amide, reference compound]
- Solubility in water (in words): exceptionally slightly soluble in water

SMILES: CN(C(=O)c1cnc(N2CC(C)(C)NC2=O)nc1N)c1cccc(C(F)(F)F)c1.Cc1ccc(S(=O)(=O)O)cc1 [p-Toluenesulfonate, 4-amino-2-(4,4-dimethyl-2-oxo-1-imidazolidinyl)pyrimidine-5-carboxylic aci d N-methyl-N-(3-trifluoromethylphenyl)amide p-toluenesulfonate]
- 1 part by mass dissolves in . . . parts of H2 O [6]: 14.44 parts of H2 O
- solubility (physchem): 65 mg/mL
